These results are taken from patent US7420037B2, “Heat shock protein-based vaccines and immunotherapies” (Antigenics Inc., priority 2003, dated 2008).

“And” between values parts separate entries of the source, which are not always exact repeats. Equal entries are not always repeated. No end group written: not given here.

The test system of the first experiment is recombinant human or murine heat shock protein 70 (hsp70).
Assay: not given
Type of experiment: binding.
Conditions: not given
As for “SIINFEKLgsgNLLRLTGW (SIINFEKLGSGNLLRLTGW; not fully specified; printed as SIINFEKLgsgNLLRLTGW) [OVA + NLLRLTGW]”, the “increase in affinity for HSP70 (lower dissociation constant) over SIINFEKLGSGHWDFAWPW” value was 15 fold.

The same experiment, now with this note: pH 8; read-out: Kd, peptide (epitope), heat shock protein-binding domain: None.
For the substance ALFDIESKV [PSMA P2, reference compound], the Kd was found to be 145 µM.

“IMDQVPFSV [Gp100 (“IMD”), reference compound]”: the Kd is 2560 µM.

For the substance SIINFEKL [OVA, reference compound], the Kd is 279 µM.

In the case of “TLGIVCPI [HPV16 E7 (86-93), reference compound]”, the Kd was determined as 187 µM.

For “YMDGTMSQV [Tyrosinase (“YMD”), reference compound]”, the Kd was determined as 204 µM.

“YMLDLQPETT [HPV16 E7 (11-20), reference compound]”: the Kd stood at 91 µM.

Still in this experiment, the particulars now being: read-out: Epitope alone: Affinity for hsp70.
Regarding AFHHVAREL [reference compound], the Kd stood at 84 µM.

As to AIIRILQQL [reference compound], the Kd worked out at 93 µM.

Turning to ALKHRAYEL [reference compound], the Kd is 97 µM.

For the substance GLYDGMEHL [reference compound], the Kd was found to be 48 µM.

Regarding ILKEPVHGV [reference compound], the Kd is 83 µM.

In the case of “IMDQVPFSV [Gp100 (“IMD”), reference compound]”, the Kd came to 2570 µM.

Regarding KASEKIFYV [reference compound], the Kd was determined as 57 µM.

SLFNTVATL [reference compound]: the Kd worked out at 35 µM.

For SVYDFFVWL [reference compound], the Kd came out at 81 µM.

In the case of VIYQYMDDL [reference compound], the Kd is 91 µM.

Regarding VLDVGDAYFSV [reference compound], the Kd amounted to 110 µM.

On to YLEPGPVTV [reference compound], for which the Kd was determined as 71 µM.

For “YMDGTMSQV [Tyrosinase (“YMD”), reference compound]”, the Kd is 209 µM.

The same experiment, now with this note: read-out: Hybrid antigen comprising epitope: Affinity for hsp70.
With AFHHVARELGSGNLLRLTGW, the Kd came to 2.1 µM.

Turning to AIIRILQQLGSGNLLRLTGW, the Kd was found to be 0.6 µM.

As to ALKHRAYELGSGNLLRLTGW, the Kd was found to be 1.1 µM.

Regarding GLYDGMEHLGSGNLLRLTGW, the Kd was 1.1 µM.

In the case of ILKEPVHGVGSGNLLRLTGW, the Kd amounted to 1.2 µM.

Take “IMDQVPFSVgsgNLLRLTGW (IMDQVPFSVGSGNLLRLTGW; not fully specified; printed as IMDQVPFSVgsgNLLRLTGW)”: the Kd was determined as 0.9 µM.

Turning to KASEKIFYVGSGNLLRLTGW, the Kd turned out to be 1.4 µM.

Take NLLRLTGWGSGRGYVYQGL: the Kd was 1.4 µM.

Take NLLRLTGWGSGSHNFEKL: the Kd stood at 1.6 µM.

For the substance SLFNTVATLGSGNLLRLTGW, the Kd amounted to 1.9 µM.

On to SLLMWITQVGSGNLLRLTGW, for which the Kd worked out at 2.2 µM.

On to SLYNTVATLGSGNLLRLTGW, for which the Kd came out at 1.8 µM.

In the case of SVYDFFVWLGSGNLLRLTGW, the Kd worked out at 2.9 µM.

As for VIYQYMDDLGSGNLLRLTGW, the Kd was found to be 1.7 µM.

As to VLDVGDAYFSVGSGNLLRLTGW, the Kd was 2 µM.

With YLEPGPVTVGSGNLLRLTGW, the Kd is 2 µM.

In the case of YMDGTMSQVgsgNLLRLTGW, the Kd came out at 1.8 µM.

Staying with this experiment, now noted: read-out: Kd, heat shock protein-binding domain: FYQLALTW; pH 8; read-out: Kd, heat shock protein-binding domain: […].
FYQLALTW: the Kd worked out at 5.9 µM.

Take “SIINFEKLgsgFYQLALTW (SIINFEKLGSGFYQLALTW; not fully specified; printed as SIINFEKLgsgFYQLALTW) [OVA + FYQLALTW]”: the Kd was 1.43 µM.

The same experiment, now with this note: read-out: Kd, heat shock protein-binding domain: HWDFAWPW; pH 8; read-out: Kd, heat shock protein-binding domain: […].
For the substance “ALFDIESKVgsgHWDFAWPW (ALFDIESKVGSGHWDFAWPW; not fully specified; printed as ALFDIESKVgsgHWDFAWPW) [PSMA P2 + HWDFAWPW]”, the Kd was found to be 22 µM.

HWDFAWPW: the Kd worked out at 120 µM.

Regarding “HWDFAWPWgsgSIINFEKL (HWDFAWPWGSGSIINFEKL; not fully specified; printed as HWDFAWPWgsgSIINFEKL)”, the Kd was 4.3 µM.

Turning to “HWDFAWPWgsgYMDGTMSQV (HWDFAWPWGSGYMDGTMSQV; not fully specified; printed as HWDFAWPWgsgYMDGTMSQV)”, the Kd was 29 µM.

In the case of “IMDQVPFSVgsgHWDFAWPW (IMDQVPFSVGSGHWDFAWPW; not fully specified; printed as IMDQVPFSVgsgHWDFAWPW)”, the Kd came out at 155 µM.

“SIINFEKLgsgHWDFAWPW (SIINFEKLGSGHWDFAWPW; not fully specified; printed as SIINFEKLgsgHWDFAWPW) [OVA + HWDFAWPW]”: the Kd stood at 40 µM.

Consider “TLGIVCPIgsgHWDFAWPW (TLGIVCPIGSGHWDFAWPW) [HPV16 E7 (86-93) + HWDFAWPW]”, for which the Kd amounted to 9.1 µM.

As to “YMDGTMSQVgsgHWDFAWPW (YMDGTMSQVGSGHWDFAWPW)”, the Kd is 24 µM.

For “YMLDLQPETTgsgHWDFAWPW (YMLDLQPETTGSGHWDFAWPW) [HPV16 E7 (11-20) + HWDFAWPW]”, the Kd turned out to be 27 µM.

The experiment is the same for the next values; noted with them: read-out: Kd, heat shock protein-binding domain: NLLRLTGW; pH 8; read-out: Kd, heat shock protein-binding domain: […].
Take “IMDQVPFSVgsgNLLRLTGW (IMDQVPFSVGSGNLLRLTGW; not fully specified; printed as IMDQVPFSVgsgNLLRLTGW)”: the Kd amounted to 3.1 µM.

Take NLLRLTGW: the Kd is 1.85 µM.

With PSMA P2 + NLLRLTGW, the Kd is 1.3 µM.

As for “SIINFEKLgsgNLLRLTGW (SIINFEKLGSGNLLRLTGW; not fully specified; printed as SIINFEKLgsgNLLRLTGW) [OVA + NLLRLTGW]”, the Kd came out at 1.2 µM.

Regarding “TLGIVCPIgsgNLLRLTGW [HPV16 E7 (86-93) + NLLRLTGW]”, the Kd amounted to 5.2 µM.

Turning to YMDGTMSQVgsgNLLRLTGW, the Kd is 2.65 µM.

Staying with this experiment, now noted: read-out: Kd, heat shock protein-binding domain: RKLFFNLRW; pH 8; read-out: Kd, heat shock protein-binding domain: […].
For the substance RKLFFNLRW, the Kd worked out at 15 µM.

Regarding “SIINFEKLgsgRKLFFNLRW (SIINFEKLGSGRKLFFNLRW; not fully specified; printed as SIINFEKLgsgRKLFFNLRW) [OVA + RKLFFNLRW]”, the Kd came to 7 µM.

In the next experiment the test system is γ-interferon-secreting CD8+ cells. In words: γ-interferon-secreting CD8+ cells after immunization of mice and in vitro restimulation with […]. The experiment is classed as in vivo. As to conditions: mice immunized day 0, splenocytes day 7, restimulated 5 days; FIG. 1. How it is done: Non-covalent complexes of recombinant human heat shock protein 70 and hybrid antigens of the invention were evaluated for biological activity in vivo. To evaluate the induction of an antigen-specific immune response, mice were immunized on day 0 with one of the following: (1) 100 μg human hsp70; (2) a noncovalent complex of 100 μg hsp70 and 15 μg […] (SEQ ID NO:357) (OVA peptide); (3) a noncovalent complex of 100 μg hsp70 and 15 μg […] (SEQ ID NO:368) (N-terminal OVA peptide, C-terminal heat shock protein binding domain […] (SEQ ID NO:358), GSG linker in between); and (4) a noncovalent complex of […] and 15 μg […] (SEQ ID NO:367) (N-terminal OVA peptide, C-terminal heat shock protein binding domain […] (SEQ ID NO:359), GSG linker in between).
On day 7, splenocytes were obtained from the immunized animals and were restimulated with peptide ([…]) (SEQ ID NO:357) in vitro for 5 days, after which the percent of γ-interferon-secreting CD8+ cells was determined.
As to “Hsp70: recombinant human heat shock protein 70”, the “immune response: percent of γ-interferon-secreting CD8+ cells” value is listed as “low level of response”.

A further experiment relates to CD8+ T cells.
Assay: not given
Also noted: species or system mice. As to conditions: mouse, in vivo.
Consider “Hsp70: recombinant human heat shock protein 70”, for which the “Number of Spots, Con A Positive control” value is reported as 965; the “Number of Spots, Con A positive control” value amounted to 834; the “Number of Spots, Medium control” value is 1.50 and 1.00; the “Number of Spots, SIINFEKL” value is 0.33. For the same substance, the “Number of spots, Con A positive control” value is listed as 552 spots per 300,000 CD8 T cells; the “Number of spots, Medium control” value is listed as 0.00 spots per 300,000 CD8 T cells; the “Number of spots, SIINFEKL” value was 0.67 spots per 300,000 CD8 T cells; the “Number of spots, Unpulsed control” value was 0.50 spots per 300,000 CD8 T cells. Besides, the “Number of spots, VSV control” value is 1.00 spots per 300,000 CD8 T cells.

Staying with this experiment, now noted: mouse, in vivo, sc.
Turning to “Hsp70: recombinant human heat shock protein 70”, the “Number of Spots, SIINFEKL” value is reported as 0.00.

In another experiment the test system is SIINFEKL-pulsed target cells. Description: 51Cr-release CTL assay after immunization of mice. The experiment is classed as in vivo. As to conditions: Example 14; SIINFEKL-pulsed target cells. How it is done: Mice were immunized s.c. at the base of the tail with the complexes listed above—[…] (SEQ ID NO:359) alone was added at a five-fold molar excess of the […] (SEQ ID NO:358) dose. 7 d later, spleens were harvested and stimulated in vitro with […] (SEQ ID NO:357) peptide. Values within bars represent the amount of epitope delivered. 100:1 E:T ratio shown.
In the same experiment, a ^51Cr-release assay as described above was done using […]-pulsed target cells. At an effector to target cell ratio of 200:1, the percent killing results obtained are shown in the far right column of the following table.
For “Hsp70: recombinant human heat shock protein 70”, the “CTL assay: % killing at 200:1 E/T” value came out at 0%.

Still in this experiment, the particulars now being: Example 16; SIINFEKL-pulsed target cells.
As to “Hsp70: recombinant human heat shock protein 70”, the “CTL assay: % killing at 200:1 E/T” value was 8.45%.

Still in this experiment, the particulars now being: binding domain peptide alone added at five-fold molar excess.
As for NLLRLTGW, the “effect on induction of an immune response by HSP70: SIINFEKLGSGHWDFAWPW mixture” value is on record as “prevent induction of an immune response”.
